{
  "source": "ChEMBL document CHEMBL5465560",
  "about": "“Selectivity Literature for EUbOPEN Chemogenomic Library” (2024)",
  "key": {"[1]": {"biological_target": "Calcium/calmodulin-dependent protein kinase type II subunit alpha (Homo sapiens, UniProt Q9UQM7)", "sequence (Q9UQM7 whole entry)": "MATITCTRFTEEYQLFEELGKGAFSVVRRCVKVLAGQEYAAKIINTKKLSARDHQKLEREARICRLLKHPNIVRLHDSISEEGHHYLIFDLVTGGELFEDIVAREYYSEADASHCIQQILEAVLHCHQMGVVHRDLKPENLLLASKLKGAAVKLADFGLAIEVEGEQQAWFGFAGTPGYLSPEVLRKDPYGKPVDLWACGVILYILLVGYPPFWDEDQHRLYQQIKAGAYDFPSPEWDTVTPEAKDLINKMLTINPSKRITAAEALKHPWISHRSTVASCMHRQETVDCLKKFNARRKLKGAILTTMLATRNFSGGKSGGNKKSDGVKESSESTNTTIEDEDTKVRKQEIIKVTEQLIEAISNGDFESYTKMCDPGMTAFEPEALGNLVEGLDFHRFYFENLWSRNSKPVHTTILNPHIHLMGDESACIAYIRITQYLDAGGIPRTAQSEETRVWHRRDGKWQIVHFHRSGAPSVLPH", "assay": "Selectivity interaction (KinomeScan (DiscoverX)) EUB0001049a CAMK2A", "settings": "at 1 µM"}, "[2]": {"biological_target": "Receptor tyrosine-protein kinase erbB-4 (Homo sapiens, UniProt Q15303)", "sequence (Q15303 whole entry)": "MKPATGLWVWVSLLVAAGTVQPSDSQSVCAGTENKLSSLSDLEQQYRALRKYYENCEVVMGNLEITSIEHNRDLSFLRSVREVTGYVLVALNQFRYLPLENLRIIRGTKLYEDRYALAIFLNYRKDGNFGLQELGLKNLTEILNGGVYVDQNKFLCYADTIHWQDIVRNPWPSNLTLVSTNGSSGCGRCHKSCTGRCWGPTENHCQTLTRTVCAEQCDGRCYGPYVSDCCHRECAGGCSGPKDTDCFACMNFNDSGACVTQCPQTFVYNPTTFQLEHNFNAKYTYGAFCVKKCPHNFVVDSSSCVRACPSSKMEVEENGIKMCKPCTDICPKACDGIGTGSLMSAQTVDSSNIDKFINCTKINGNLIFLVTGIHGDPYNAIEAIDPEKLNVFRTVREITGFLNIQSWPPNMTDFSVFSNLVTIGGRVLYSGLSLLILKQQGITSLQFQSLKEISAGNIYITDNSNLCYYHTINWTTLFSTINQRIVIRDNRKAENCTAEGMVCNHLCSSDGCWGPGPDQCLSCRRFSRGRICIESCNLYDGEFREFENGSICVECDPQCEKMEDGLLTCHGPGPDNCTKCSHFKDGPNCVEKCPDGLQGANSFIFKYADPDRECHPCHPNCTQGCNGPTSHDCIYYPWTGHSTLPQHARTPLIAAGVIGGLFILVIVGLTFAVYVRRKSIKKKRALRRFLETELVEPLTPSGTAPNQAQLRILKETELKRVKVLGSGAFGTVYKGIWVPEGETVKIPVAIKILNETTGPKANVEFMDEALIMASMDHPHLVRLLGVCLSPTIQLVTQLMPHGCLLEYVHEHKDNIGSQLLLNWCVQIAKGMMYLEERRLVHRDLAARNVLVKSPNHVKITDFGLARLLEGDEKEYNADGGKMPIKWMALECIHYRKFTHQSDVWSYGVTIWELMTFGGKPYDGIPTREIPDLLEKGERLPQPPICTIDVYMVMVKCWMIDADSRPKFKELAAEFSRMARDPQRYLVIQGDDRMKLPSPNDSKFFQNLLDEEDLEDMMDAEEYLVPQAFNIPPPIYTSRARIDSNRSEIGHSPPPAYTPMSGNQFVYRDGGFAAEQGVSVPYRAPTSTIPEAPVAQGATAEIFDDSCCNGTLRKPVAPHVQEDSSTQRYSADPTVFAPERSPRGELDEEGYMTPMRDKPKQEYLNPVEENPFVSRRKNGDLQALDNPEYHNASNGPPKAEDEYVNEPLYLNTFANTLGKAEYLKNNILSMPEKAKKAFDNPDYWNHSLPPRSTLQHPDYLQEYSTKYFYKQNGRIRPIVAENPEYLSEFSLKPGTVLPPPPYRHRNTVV", "assay": "Selectivity interaction (Kinase panel (literature)) EUB0001199aCl ERBB4", "settings": "at 1 µM"}, "[3]": {"biological_target": "T1, Aurora kinase C (Homo sapiens) (UniProt Q9UQB9)", "T1 sequence (whole entry)": "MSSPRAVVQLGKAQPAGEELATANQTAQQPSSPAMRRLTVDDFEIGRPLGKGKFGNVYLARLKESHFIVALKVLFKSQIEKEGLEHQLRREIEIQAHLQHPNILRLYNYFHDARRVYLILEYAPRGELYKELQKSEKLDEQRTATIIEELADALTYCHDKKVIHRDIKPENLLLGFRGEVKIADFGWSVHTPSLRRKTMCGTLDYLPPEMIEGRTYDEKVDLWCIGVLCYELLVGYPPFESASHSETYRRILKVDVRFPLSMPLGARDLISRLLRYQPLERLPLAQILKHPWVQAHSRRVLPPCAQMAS", "assay": "Selectivity interaction (Kinase panel (Invitrogen)) EUB0000639a AURKC", "settings": "at 200 nM"}, "[4]": {"biological_target": "Serine/threonine-protein kinase N1 (Homo sapiens, UniProt Q16512)", "sequence (Q16512 2-942 limits assumed)": "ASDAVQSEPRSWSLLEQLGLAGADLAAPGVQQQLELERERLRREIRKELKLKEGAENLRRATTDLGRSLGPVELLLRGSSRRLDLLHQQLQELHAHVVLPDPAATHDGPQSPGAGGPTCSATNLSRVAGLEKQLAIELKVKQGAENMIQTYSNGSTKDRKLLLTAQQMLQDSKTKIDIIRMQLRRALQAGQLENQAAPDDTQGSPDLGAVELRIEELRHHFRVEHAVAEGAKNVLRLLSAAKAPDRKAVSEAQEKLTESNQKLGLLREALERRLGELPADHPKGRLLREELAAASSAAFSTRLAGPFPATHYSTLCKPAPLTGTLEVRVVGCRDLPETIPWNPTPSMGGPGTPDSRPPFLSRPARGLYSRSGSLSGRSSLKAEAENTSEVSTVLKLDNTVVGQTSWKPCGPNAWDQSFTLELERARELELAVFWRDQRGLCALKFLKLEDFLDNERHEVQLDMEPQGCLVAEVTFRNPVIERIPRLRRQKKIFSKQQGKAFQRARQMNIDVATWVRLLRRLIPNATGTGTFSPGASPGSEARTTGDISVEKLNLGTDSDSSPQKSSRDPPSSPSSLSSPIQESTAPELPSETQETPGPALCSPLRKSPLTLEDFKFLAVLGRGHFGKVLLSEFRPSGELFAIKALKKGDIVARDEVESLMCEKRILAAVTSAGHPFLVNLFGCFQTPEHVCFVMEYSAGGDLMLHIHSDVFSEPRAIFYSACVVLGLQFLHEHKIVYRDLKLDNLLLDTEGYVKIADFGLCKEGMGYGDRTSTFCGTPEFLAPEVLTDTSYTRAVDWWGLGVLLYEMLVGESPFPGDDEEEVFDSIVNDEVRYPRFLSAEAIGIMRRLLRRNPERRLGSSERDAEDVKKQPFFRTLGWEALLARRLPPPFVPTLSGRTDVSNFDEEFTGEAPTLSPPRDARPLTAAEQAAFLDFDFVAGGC", "assay": "Selectivity interaction (ActivX KiNativ screen (kinase selectivity in THP-1 cell lysates)) EUB0000639a PKN1", "assay_type": "subcellular", "settings": "lysate"}, "[5]": {"biological_target": "T2, Phosphatidylinositol 3-kinase C2 domain-containing subunit gamma (Homo sapiens) (UniProt O75747)", "T2 sequence (whole entry)": "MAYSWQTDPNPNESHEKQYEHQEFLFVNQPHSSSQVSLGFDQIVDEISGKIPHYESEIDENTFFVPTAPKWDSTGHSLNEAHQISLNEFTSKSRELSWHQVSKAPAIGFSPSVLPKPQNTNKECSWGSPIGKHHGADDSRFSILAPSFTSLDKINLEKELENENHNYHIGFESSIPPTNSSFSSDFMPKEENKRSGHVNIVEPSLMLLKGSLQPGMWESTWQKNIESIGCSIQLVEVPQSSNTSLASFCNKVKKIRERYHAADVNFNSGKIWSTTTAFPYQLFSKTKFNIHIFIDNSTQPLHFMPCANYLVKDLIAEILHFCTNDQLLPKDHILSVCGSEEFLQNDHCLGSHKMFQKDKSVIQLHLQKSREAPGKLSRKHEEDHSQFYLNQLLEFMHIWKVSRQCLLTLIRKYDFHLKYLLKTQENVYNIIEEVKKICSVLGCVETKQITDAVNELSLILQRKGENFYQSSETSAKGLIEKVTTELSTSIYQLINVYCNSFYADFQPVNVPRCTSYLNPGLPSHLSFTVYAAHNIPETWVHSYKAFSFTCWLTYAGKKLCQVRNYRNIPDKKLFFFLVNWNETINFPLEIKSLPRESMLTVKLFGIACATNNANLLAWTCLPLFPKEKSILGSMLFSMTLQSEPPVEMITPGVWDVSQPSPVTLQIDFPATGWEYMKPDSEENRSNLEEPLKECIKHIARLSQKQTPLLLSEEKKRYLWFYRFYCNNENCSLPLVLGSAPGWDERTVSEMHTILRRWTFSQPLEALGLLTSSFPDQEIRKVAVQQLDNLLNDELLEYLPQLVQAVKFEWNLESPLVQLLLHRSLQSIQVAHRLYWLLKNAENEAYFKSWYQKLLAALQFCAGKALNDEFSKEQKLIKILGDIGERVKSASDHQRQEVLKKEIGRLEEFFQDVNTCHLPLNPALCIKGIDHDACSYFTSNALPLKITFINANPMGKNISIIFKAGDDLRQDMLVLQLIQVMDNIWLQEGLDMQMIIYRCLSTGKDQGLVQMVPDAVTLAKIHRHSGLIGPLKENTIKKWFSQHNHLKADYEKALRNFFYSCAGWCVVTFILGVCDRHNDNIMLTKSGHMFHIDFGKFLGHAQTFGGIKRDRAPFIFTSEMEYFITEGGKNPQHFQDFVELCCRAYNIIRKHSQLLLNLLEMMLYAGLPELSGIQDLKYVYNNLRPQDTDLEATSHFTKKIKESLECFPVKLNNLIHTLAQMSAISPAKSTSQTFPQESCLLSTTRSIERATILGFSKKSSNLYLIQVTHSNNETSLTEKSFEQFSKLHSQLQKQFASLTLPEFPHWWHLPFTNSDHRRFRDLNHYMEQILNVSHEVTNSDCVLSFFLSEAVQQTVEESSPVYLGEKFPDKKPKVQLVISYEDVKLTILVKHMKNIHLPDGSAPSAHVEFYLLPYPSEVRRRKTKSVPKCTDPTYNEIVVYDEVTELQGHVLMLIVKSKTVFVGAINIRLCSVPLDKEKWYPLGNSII", "assay": "Selectivity interaction (KinomeScan (DiscoverX)) EUB0000092b PIK3C2G", "settings": "at 10 µM"}, "[6]": {"biological_target": "T3, Serine/threonine-protein kinase TAO3 (Homo sapiens) (UniProt Q9H2K8)", "T3 sequence (whole entry)": "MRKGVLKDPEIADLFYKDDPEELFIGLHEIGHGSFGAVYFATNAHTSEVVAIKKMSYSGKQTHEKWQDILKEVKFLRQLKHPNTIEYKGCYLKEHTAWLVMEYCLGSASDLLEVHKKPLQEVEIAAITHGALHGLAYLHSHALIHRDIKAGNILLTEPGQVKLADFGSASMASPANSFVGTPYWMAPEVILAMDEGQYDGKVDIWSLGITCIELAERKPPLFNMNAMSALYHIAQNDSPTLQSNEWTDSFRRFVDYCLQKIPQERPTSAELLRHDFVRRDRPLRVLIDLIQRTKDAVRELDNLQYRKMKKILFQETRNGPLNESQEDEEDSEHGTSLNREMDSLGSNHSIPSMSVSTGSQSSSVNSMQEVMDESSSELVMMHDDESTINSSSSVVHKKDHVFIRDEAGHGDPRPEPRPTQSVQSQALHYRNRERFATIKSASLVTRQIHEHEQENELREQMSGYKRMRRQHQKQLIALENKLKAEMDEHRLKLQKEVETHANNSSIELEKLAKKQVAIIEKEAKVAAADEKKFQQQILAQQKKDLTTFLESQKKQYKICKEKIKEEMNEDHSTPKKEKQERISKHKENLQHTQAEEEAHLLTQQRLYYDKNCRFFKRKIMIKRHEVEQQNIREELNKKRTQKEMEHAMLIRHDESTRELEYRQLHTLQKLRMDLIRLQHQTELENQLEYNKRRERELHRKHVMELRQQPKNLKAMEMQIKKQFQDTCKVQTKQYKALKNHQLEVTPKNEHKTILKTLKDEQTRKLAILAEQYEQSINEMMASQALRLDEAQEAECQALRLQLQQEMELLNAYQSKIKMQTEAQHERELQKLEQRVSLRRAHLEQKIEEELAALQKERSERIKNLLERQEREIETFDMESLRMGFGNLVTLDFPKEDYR", "assay": "Selectivity interaction (Ambit KINOMEscan and KiNATiv profiling in Jurkat cells) EUB0000090b TAOK3", "assay_type": "cell-based", "settings": "at 1 µM"}},
  "data": [
    {"smiles": "COc1cc(Nc2nc(C)cc(-c3cnn4nc(OC)ccc34)n2)cc(C(F)(F)F)c1", "values": [
      {"measurement": "% of control", "setting": "[1]", "value": 85, "unit": "%"}
    ]},
    {"smiles": "CN1Cc2nccc(-c3cn(C)nc3-c3ccc(F)cc3)c2C1=O", "values": [
      {"measurement": "% of inhibition", "setting": "[2]", "value": 15, "unit": "%"}
    ]},
    {"smiles": "CC[C@@H]1[C@H](F)C(=O)N[C@@H]1COc1nccc2cc(C(N)=O)c(OC)cc12", "note": "[ZIMLOVISERTIB]", "values": [
      {"measurement": "% of inhibition", "setting": "[3]", "value": 2.66, "unit": "%"},
      {"measurement": "% of inhibition", "setting": "[4]; at 0.01 µM", "value": 8.7, "unit": "%"},
      {"measurement": "% of inhibition", "setting": "[4]; at 0.04 µM", "value": 3.4, "unit": "%"},
      {"measurement": "% of inhibition", "setting": "[4]; at 0.2 µM", "value": 5, "unit": "%"},
      {"measurement": "% of inhibition", "setting": "[4]; at 1 µM", "value": 5.9, "unit": "%"},
      {"measurement": "% of inhibition", "setting": "[4]; at 5 µM", "value": 34.9, "unit": "%"}
    ]},
    {"smiles": "CCC(=O)N1CCN(c2ccc(-n3c(=O)ccc4cnc5ccc(-c6cnc7ccccc7c6)cc5c43)cc2C(F)(F)F)CC1", "values": [
      {"measurement": "% of control", "setting": "[5]", "value": 11, "unit": "%"}
    ]},
    {"smiles": "CN(C)C/C=C/C(=O)Nc1ccc(C(=O)N2CCCC(Nc3ncc(Cl)c(-c4c[nH]c5ccccc45)n3)C2)cc1", "note": "(stereo not given)", "values": [
      {"measurement": "% of control", "setting": "[6]", "value": 97, "unit": "%"}
    ]}
  ]
}
